We go through one compound from patent US11213514B2, “Alpha-1-adrenergic receptor agonist therapy” (The Regents of the University of California, priority 2016, dated 2022).

Molecules are shown by their SMILES.

In one experiment the test system is ERK. The experiment is described as follows: ERK activation in neonatal rat ventricular myocytes (pERK/ERK Western blot). In kind it is cell-based. The note with it: Rattus norvegicus, Ventricular myocyte; uninjured NRVMs, 15 minutes, propranolol pre-treatment; read-out: EC50, ERK phosphorylation. An excerpt:
FIGS. 4A-4F. […] The reaction was stopped immediately and lysates were blotted for total and phospho-ERK (pERK). FIG. 4A. Representative Western blot. FIG. 4B. […] FIG. 4C. Summary of pERK/ERK for experiments using 5 different NRVM isolations. The average pERK/ERK ratio for each experiment was derived from at least 2 individual wells and normalized to the pERK/ERK ratio for vehicle treated NRVMs. FIG. 4D and FIG. 4E. […] Heart lysates were blotted for pERK and ERK. Results were compared using one way ANOVA with Tukey post-test. FIG. 4F.
Dabuzalgron protects neonatal rat ventricular myocytes from cell death due to doxorubicin. […] (FIG. 4C).
Female Sprague-Dawley rats were from Charles River. NRVMs were isolated as previously described.7 Briefly, hearts from 1-2 day old rat pups were minced, digested serially in collagenase (Worthington)-containing solution, filtered, then pre-plated to exclude non-myocyotes. NRVMs were then plated on laminin-coated dishes in DMEM with 5% fetal bovine serum (Sigma F2442) for 24 hours. Experiments were carried out after 36-96 hours of serum starvation in the presence of insulin, transferrin, and BrdU. […]
All results are presented as mean±SEM. […] EC50 for ERK activation was calculated using sigmoidal dose-response analysis (Prism).
(In western blotting, separated proteins are transferred to a membrane and probed.)

A further experiment concerns mouse heart. The experiment in a line: Pressure overload cardiomyopathy caused by transverse aortic constriction. In kind it is in vivo. The note with it: mice, TAC day 0, osmotic minipumps from 4 weeks; both doses 20 ug/kg/d and 200 ug/kg/d; day 55. As to the method: FIG. 8. […] Cardiac function was measured before TAC, and every 2 weeks, using echocardiography.

As usually defined, the EC50 is the concentration needed to bring the measured effect to its halfway point. Regarding `Cc1c(OCC2=NCCN2)ccc(Cl)c1NS(C)(=O)=O` [dabuzalgron, N-[6-chloro-3-(4,5-dihydro-1H-imidazol-2-ylmethoxy)-2-methylphenyl]methanesulfonamide], the EC50 in the experiment with ERK was found to be 480 nM. For the same compound, in the experiment on mouse heart, the “cardiac function (fractional shortening) compared with vehicle” value was “significant improvement”.
